In brackets after ≈: the same amount, converted by molar mass. Like-named read-outs stand apart in the source and are kept apart here. Non-standard residues stand in square brackets, D forms with d. Residues, ends and D or L forms follow the SMILES beside them. *: point of attachment. Pentanoyl(5-NH-cholesteryl) = CC(C)CCC[C@@H](C)[C@H]1CC[C@H]2[C@@H]3CC=C4C[C@@H](NCCCCC(=O)*)CC[C@]4(C)[C@H]3CC[C@]12C; Cholesteryloxycarbonyl = CC(C)CCC[C@@H](C)[C@H]1CC[C@H]2[C@@H]3CC=C4C[C@@H](OC(=O)*)CC[C@]4(C)[C@H]3CC[C@]12C; PEG3 = NCCOCCOCCOCCC(=O)O; Aib = CC(C)(N)C(=O)O; Ahx = NCCCCCC(=O)O; βAla = NCCC(=O)O
Legend:
[1] = tested on: endosomes of Jurkat lymphocytes; assay: Endosome disruption in Jurkat lymphocytes: release of carboxyfluorescein from disulfide probe Compound 2, flow cytometry; settings: for Efficacy (% of max. 1): % change in cellular fluorescence relative to maximal response of Compound 1 (100%); for Efficacy (% of max. 1) / Efficacy (% of 1): Jurkat; for Efficacy (% of 1): % of the effect of compound 1, calculated span of dose-response curve, ± standard deviation
Procedure: The effects of the compounds of the invention on human Juikat leukemia cells were evaluated using flow cytometry-based assays of potency, efficacy, and toxicity. […] Analysis of flow cytometry data by non-linear regression was used to determine IC50 values for potency with the efficacy expressed as a percentage. […] Dose-dependent effects on cellular viability after 48 h at 37° C. in culture were also measured by flow cytometry.
The # represents the compound number in accordance with Tables A, B, and C. Concentrations of compound stock solutions were determined by absorbance measurements at 280 nm. Efficacy was determined as % change in cellular fluorescence relative to the maximal response of Compound 1, defined as 100%. Potencies and efficacies in Jurkat lymphocytes were measured by flow cytometry after treatment of cells with the compounds listed and the fluorescent probe Compound 2 (2.5 μM) for 14 hours. Toxicity to this cell line was determined by flow cytometry analysis of light scattering and counterstaining with PI after treatment for 48 h at 37° C. in culture. […] N.D., not determined.
Cells were treated with fluorescent molecular probe Compound 2 (2.5 μM) and endosome disruptors for 14 hours at 37° C. Enhanced cellular fluorescence resulting from release of the pH-sensitive fluorophore Compound 3 into the cytoplasm was quantified by flow cytometry.
Natural amino acids are represented by single letter codes. Codes for non-standard elements are as follows: Ch1: (3β-Cholest-5-en-3-yl-ammonio)pentanoyl; Ch2: (Cholester-3-yl)oxy-βAla-βAla; X: ε-Ahx; U: Aib; PB: Pacific Blue fluorophore. O: 3-(2-(2-(2-aminoethoxy)ethoxy)ethoxy)propanyl.

[2] = Thermodynamic solubility in PBS (pH 7.4); format: physicochemical; settings: phosphate buffered saline, pH 7.4, Table 3; PBS pH 7.4, 24 h at 22° C.; read-out: Solubility
From the text: Values in parentheses represent 95% confidence intervals. N.D., not determined.
Measurements represent duplicate or more replicates, with active peptides subjected to multiple replicates. ND: not determined. The peptide was non-toxic and soluble in cell culture medium at this concentration.

[3] = read-out: Potency, Table 2, EC50 ± standard deviation, Jurkat lymphocytes, disulfide-linked fluorescent probe (2.5 μM), 14 h

| solubility thermodynamic at 24 h [2] | EC50 [1, 3] | Molecule | EC50 ([1]; 14 h) | Efficacy (% of max. 1) ([1]; Table 1, 14 hours) | Efficacy (% of 1) ([1]; Table 2, 14 h) | further results |
| --- | --- | --- | --- | --- | --- | --- |
|  |  | CC(C)CCC[C@@H](C)[C@H]1CC[C@H]2[C@@H]3CC=C4C[C@@H](NCCCCC(=O)NCCC(=O)N[C@@H](CCC(=O)O)C(=O)N[C@@H](CCC(=O)O)C(=O)NCCCCCC(=O)N[C@@H](CO)C(=O)N[C@@H](CO)C(=O)N[C@@H](C)C(=O)N[C@@H](Cc5c[nH]c6ccccc56)C(=O)N[C@@H](Cc5c[nH]c6ccccc56)C(=O)N[C@@H](CO)C(=O)N[C@@H](Cc5ccc(O)cc5)C(=O)N[C@@H](Cc5c[nH]c6ccccc56)C(=O)N5CCC[C@H]5C(=O)N5CCC[C@H]5C(=O)N[C@H](C(=O)N[C@@H](C)C(N)=O)C(C)C)CC[C@]4(C)[C@H]3CC[C@]12C [Compound 6, R = BEEXSSAWWSYWPPVA-CONH2] ({Pentanoyl(5-NH-cholesteryl)-βAla}-EE[Ahx]SSAWWSYWPPVA-NH2) | 3.5 µM |  |  |  |
|  |  | CC(C)CCC[C@@H](C)[C@H]1CC[C@H]2[C@@H]3CC=C4C[C@@H](NCCCCC(=O)NCCC(=O)N[C@@H](CCC(=O)O)C(=O)N[C@@H](CCC(=O)O)C(=O)NCCCCCC(=O)NC(C)(C)C(=O)NC(C)(C)C(=O)NC(C)(C)C(=O)N[C@@H](Cc5c[nH]c6ccccc56)C(=O)N[C@@H](Cc5c[nH]c6ccccc56)C(=O)N[C@@H](C)C(=O)N[C@@H](C)C(=O)N[C@@H](Cc5c[nH]c6ccccc56)C(=O)N5CCC[C@H]5C(=O)N5CCC[C@H]5C(=O)N[C@H](C(=O)N[C@@H](C)C(N)=O)C(C)C)CC[C@]4(C)[C@H]3CC[C@]12C [Compound 14, R = BEEXUUUWWAAWPPVA-CONH2] ({Pentanoyl(5-NH-cholesteryl)-βAla}-EE[Ahx][Aib][Aib][Aib]WWAAWPPVA-NH2) | 1.2 µM |  |  |  |
|  |  | CC(C)CCC[C@@H](C)[C@H]1CC[C@H]2[C@@H]3CC=C4C[C@@H](NCCCCC(=O)NCCC(=O)N[C@@H](CCC(=O)O)C(=O)N[C@@H](CCC(=O)O)C(=O)NCCCCCC(=O)NC(C)(C)C(=O)NC(C)(C)C(=O)NC(C)(C)C(=O)N[C@@H](Cc5c[nH]c6ccccc56)C(=O)N[C@@H](Cc5c[nH]c6ccccc56)C(=O)N[C@@H](C)C(=O)N[C@@H](Cc5ccc(O)cc5)C(=O)N[C@@H](Cc5c[nH]c6ccccc56)C(=O)N[C@@H](C)C(=O)N5CCC[C@H]5C(=O)N[C@H](C(=O)N[C@@H](C)C(N)=O)C(C)C)CC[C@]4(C)[C@H]3CC[C@]12C [Compound 16, R = BEEXUUUWWAYWAPVA-CONH2] ({Pentanoyl(5-NH-cholesteryl)-βAla}-EE[Ahx][Aib][Aib][Aib]WWAYWAPVA-NH2) | 1.6 µM |  |  |  |
|  |  | CC(C)CCC[C@@H](C)[C@H]1CC[C@H]2[C@@H]3CC=C4C[C@@H](NCCCCC(=O)NCCC(=O)N[C@@H](CCC(=O)O)C(=O)N[C@@H](CCC(=O)O)C(=O)NCCCCCC(=O)NC(C)(C)C(=O)NC(C)(C)C(=O)NC(C)(C)C(=O)N[C@@H](Cc5c[nH]c6ccccc56)C(=O)N[C@@H](Cc5c[nH]c6ccccc56)C(=O)N[C@@H](C)C(=O)N[C@@H](Cc5ccc(O)cc5)C(=O)N[C@@H](Cc5c[nH]c6ccccc56)C(=O)N5CCC[C@H]5C(=O)N[C@@H](C)C(=O)N[C@H](C(=O)N[C@@H](C)C(N)=O)C(C)C)CC[C@]4(C)[C@H]3CC[C@]12C [Compound 17, R = BEEXUUUWWAYWPAVA-CONH2] ({Pentanoyl(5-NH-cholesteryl)-βAla}-EE[Ahx][Aib][Aib][Aib]WWAYWPAVA-NH2) | 2.1 µM |  |  |  |
|  |  | CC(C)CCC[C@@H](C)[C@H]1CC[C@H]2[C@@H]3CC=C4C[C@@H](NCCCCC(=O)NCCC(=O)N[C@@H](CCC(=O)O)C(=O)N[C@@H](CCC(=O)O)C(=O)NCCCCCC(=O)NCCCCCC(=O)NC(C)(C)C(=O)NC(C)(C)C(=O)NC(C)(C)C(=O)NC(C)(C)C(=O)N[C@@H](Cc5ccccc5)C(=O)N[C@@H](Cc5ccccc5)C(=O)N[C@@H](C)C(=O)N[C@@H](Cc5ccccc5)C(=O)N[C@@H](Cc5ccccc5)C(=O)N5CCC[C@H]5C(=O)N5CCC[C@H]5C(=O)N[C@H](C(=O)N[C@@H](C)C(N)=O)C(C)C)CC[C@]4(C)[C@H]3CC[C@]12C [Compound 22, R = BEEXXUUUUFFAFFPPVA-CONH2] ({Pentanoyl(5-NH-cholesteryl)-βAla}-EE[Ahx][Ahx][Aib][Aib][Aib][Aib]FFAFFPPVA-NH2) | > 10 µM |  |  |  |
| 86 ± 5 µM (≈ 123 µg/mL) |  | CC(C)[C@H](NC(=O)[C@@H](NC(=O)[C@@H]1CCCN1C(=O)[C@@H]1CCCN1C(=O)[C@H](Cc1c[nH]c2ccccc12)NC(=O)[C@H](Cc1ccc(O)cc1)NC(=O)[C@H](C)NC(=O)[C@H](Cc1c[nH]c2ccccc12)NC(=O)[C@H](C)NC(=O)C(C)(C)NC(=O)C(C)(C)NC(=O)C(C)(C)NC(=O)C(C)(C)N)C(C)C)C(N)=O [Compound 45] (H-[Aib][Aib][Aib][Aib]AWAYWPPVV-NH2) |  | <<50% | <10% |  |
| 86 ± 5 µM (≈ 123 µg/mL) |  | CC(C)[C@H](NC(=O)[C@@H](NC(=O)[C@@H]1CCCN1C(=O)[C@@H]1CCCN1C(=O)[C@H](Cc1c[nH]c2ccccc12)NC(=O)[C@H](Cc1ccc(O)cc1)NC(=O)[C@H](C)NC(=O)[C@H](C)NC(=O)[C@H](Cc1c[nH]c2ccccc12)NC(=O)C(C)(C)NC(=O)C(C)(C)NC(=O)C(C)(C)NC(=O)C(C)(C)N)C(C)C)C(N)=O [Compound 46] (H-[Aib][Aib][Aib][Aib]WAAYWPPVV-NH2) |  | <<50% | <10% |  |
| 63 ± 3 µM (≈ 91.4 µg/mL) | > 15 µM | CC(C)[C@H](NC(=O)[C@@H](NC(=O)[C@@H]1CCCN1C(=O)[C@@H]1CCCN1C(=O)[C@H](Cc1c[nH]c2ccccc12)NC(=O)[C@H](C)NC(=O)[C@H](C)NC(=O)[C@H](Cc1c[nH]c2ccccc12)NC(=O)[C@H](Cc1c[nH]c2ccccc12)NC(=O)C(C)(C)NC(=O)C(C)(C)NC(=O)C(C)(C)NC(=O)C(C)(C)N)C(C)C)C(N)=O [Compound 47] (H-[Aib][Aib][Aib][Aib]WWAAWPPVV-NH2) |  | <<50% |  |  |
| 86 ± 5 µM (≈ 123 µg/mL) |  | CC(C)[C@H](NC(=O)[C@@H](NC(=O)[C@@H]1CCCN1C(=O)[C@@H]1CCCN1C(=O)[C@H](C)NC(=O)[C@H](Cc1ccc(O)cc1)NC(=O)[C@H](C)NC(=O)[C@H](Cc1c[nH]c2ccccc12)NC(=O)[C@H](Cc1c[nH]c2ccccc12)NC(=O)C(C)(C)NC(=O)C(C)(C)NC(=O)C(C)(C)NC(=O)C(C)(C)N)C(C)C)C(N)=O [Compound 48] (H-[Aib][Aib][Aib][Aib]WWAYAPPVV-NH2) |  | <<50% | <10% |  |
|  | 4 ± 1 µM | CC(C)[C@H](NC(=O)[C@@H](NC(=O)[C@@H]1CCCN1C(=O)[C@@H]1CCCN1C(=O)[C@H](Cc1ccc(O)cc1)NC(=O)[C@H](Cc1ccc(O)cc1)NC(=O)[C@H](C)NC(=O)[C@H](Cc1ccc(O)cc1)NC(=O)[C@H](Cc1ccc(O)cc1)NC(=O)[C@H](C)NC(=O)[C@H](Cc1ccc(O)cc1)NC(=O)[C@H](Cc1ccc(O)cc1)NC(=O)C(C)(C)NC(=O)C(C)(C)NC(=O)C(C)(C)NC(=O)C(C)(C)N)C(C)C)C(N)=O [Compound 85] (H-[Aib][Aib][Aib][Aib]YYAYYAYYPPVV-NH2) |  |  | >125% |  |
|  | 0.08 ± 0.01 µM | Ch1-EEOOUUUUYYYYPPVV-NH2 [Compound 86] |  |  | 125 ± 10% |  |

| Molecule | solubility thermodynamic at 24 h [2] | EC50 [1, 3] | EC50 ([1]; 14 h) | Efficacy (% of max. 1) ([1]; Table 1, 14 hours) | Efficacy (% of 1) ([1]; Table 2, 14 h) | further results |
| --- | --- | --- | --- | --- | --- | --- |
| CC(C)[C@H](NC(=O)[C@@H]1CCCN1C(=O)[C@@H]1CCCN1C(=O)[C@H](Cc1c[nH]c2ccccc12)NC(=O)[C@H](Cc1ccc(O)cc1)NC(=O)[C@H](C)NC(=O)[C@H](Cc1c[nH]c2ccccc12)NC(=O)[C@H](Cc1c[nH]c2ccccc12)NC(=O)C(C)(C)NC(=O)C(C)(C)NC(=O)C(C)(C)NC(=O)C(C)(C)N)C(=O)N[C@@H](C)C(N)=O [Compound 43] (H-[Aib][Aib][Aib][Aib]WWAYWPPVA-NH2) | 40 ± 2 µM (≈ 60.6 µg/mL) | 9 ± 3 µM |  | 64% | 57 ± 7% | EC50 ([1]; read-out: Potency (EC50), Table 1, Jurkat lymphocytes, probe Compound 2 (2.5 μM), 14 hours, 95% confidence interval in neighbouring cell): 10 µM |
| CC(C)CCC[C@@H](C)[C@H]1CC[C@H]2[C@@H]3CC=C4C[C@@H](OC(=O)NCCC(=O)NCCC(=O)N[C@@H](CCC(=O)O)C(=O)N[C@@H](CCC(=O)O)C(=O)NCCOCCOCCOCCC(=O)NCCOCCOCCOCCC(=O)NC(C)(C)C(=O)NC(C)(C)C(=O)NC(C)(C)C(=O)NC(C)(C)C(=O)N[C@@H](Cc5c[nH]c6ccccc56)C(=O)N[C@@H](Cc5ccc(O)cc5)C(=O)N[C@@H](C)C(=O)N[C@@H](Cc5c[nH]c6ccccc56)C(=O)N[C@@H](Cc5ccc(O)cc5)C(=O)N[C@@H](C)C(=O)N[C@@H](Cc5c[nH]c6ccccc56)C(=O)N[C@@H](Cc5ccc(O)cc5)C(=O)N5CCC[C@H]5C(=O)N5CCC[C@H]5C(=O)N[C@H](C(=O)N[C@H](C(N)=O)C(C)C)C(C)C)CC[C@]4(C)[C@H]3CC[C@]12C [Compound 84, Ch2-EEOOUUUUWYAWYAWYPPVV-NH2] ({Cholesteryloxycarbonyl-βAla-βAla}-EE[PEG3][PEG3][Aib][Aib][Aib][Aib]WYAWYAWYPPVV-NH2) | 21 ± 1 µM (≈ 66.4 µg/mL) |  |  |  |  |  |

Reference: patent US10766928B2, “Targeted conformationally-constrained kinked endosomal disrupting peptides” (priority 2012, dated 2020)
